# Experimental data taken from patent US20260240817A1, “COMPOSITIONS AND METHODS FOR TREATING CHARCOT-MARIE-TOOTH DISEASE” (priority 2023, published 2026).
# “Also recorded” adds a separate entry of the source.
# Legend:
# MG patients = experiment: Phase 1 FIH study, single doses in MG patients; assay type: in vivo, human
# Procedure: (§1) NMD670 has been tested in a Phase 1, FIH, single ascending and multiple ascending dose study in healthy volunteers. […] In addition, the Phase 1 FIH study also tested single doses of 400 mg and 1200 mg in 12 MG patients.
# [1] = tested on: soleus muscle fibres from CMT2D mice; experiment: Intracellular recordings of action potentials during repeated motor nerve stimulation, isolated soleus nerve-muscle preparations; assay type: cell-based, mouse
# mouse model of CMT1A [2] = experiment: Stimulated EMG (CMAP decrement) in mouse model of CMT1A; assay type: in vivo
# Procedure: (§2) Male and female mice (Jacson Laboratory Strain #:030052) approx. 6-7 months of age at time of study start were used. These genetically modified mice are used as a disease model to study Charcot Marie Tooth (CMT) disease type 1A (CMT1A).
# (§3) The sodium salt of NMD670 was dissolved in phosphate buffered saline (PBS) to a dose volume of 1 mg/mL. The entire amount of dose-solution was then transferred to a vial labelled A or B (for blinding purposes). The vehicle control solution was PBS and this was transferred to a vial labelled A or B (for blinding purposes). Compound was dosed IP at a volume of 10 mL/kg, from a 1 mg/mL dose solution.
# (§4) NMD670 or vehicle was administered by IP injection at a volume of 10 mL/kg from a 1 mg/mL dose solution while sedated in the EMG measurement set up. 10 to 15 minutes was allowed to elapse before next step was initiated.
# (§5) Each mouse was tested prior to intervention with test article, and then tested after IP injection of 10 mg/kg NMD670 or vehicle (PBS). A washout period was then allowed (48 hours), and the mouse was subjected to the same test, but receiving the opposite treatment to that on the first day. All mice thus received both vehicle and NMD670, in a randomized order (FIG. 6).
# mouse model of CMT1A [3] = experiment: In vivo hind leg force (torque) on sciatic nerve stimulation in mouse model of CMT1A
# Procedure: as §2, §3
# (§6) Animal was sedated (isoflurane inhalation 2% in ambient air) and prepared for assessment of force production from the hind leg, via electrical stimulation of the sciatic nerve in a static position. Stimulation electrodes were inserted at the sciatic nerve, and test pulses of low current amplitude were used to adjust position of all electrodes until a stable reproducible signal was achieved twice. The force resulting from supramaximal electrical stimulation of the supplying motor nerve was recorded from a foot-pad moved by the foot/paw of the animal. See table Table 21 for detailed stimulation protocol.
# as §4
# as §6, with “The animal remained” for “Animal was”, “sedated” for “sedated (isoflurane inhalation 2% in ambient air)”, “See” for “See table”
# as §5
# healthy volunteers = experiment: Phase I (FIH) clinical trial, safety and tolerability in healthy volunteers; assay type: in vivo, human
# Text: Part A1 tested single doses of NMD670 in a double-blind, randomised, placebo-controlled, partial crossover and dose-escalating design in healthy male subjects (see the WHO International Clinicals Trials Registry Platform study reference NL8692). A total of nine dose levels were investigated in three cohorts of subjects. Each cohort consisted of nine subjects, each subject had three study sessions. Each subject received escalating doses of NMD670 on two occasions and placebo on one occasion, the order will be randomized in a cross-over fashion. Each dose level was randomized in a 6:3 ratio (active vs. placebo). See Table 10 for an overview of the randomization scheme.
# Due to this temporary halt and partial unblinding of the study during dose level 7, a new randomization was necessary. After unblinding three subjects in dose level 7, the original randomization for dose 8 and 9 was changed in order to keep the study blinded. […] Therefore, for the remaining 2 doses, a full cross-over design investigating one previously tested dose level was used. The 9 subjects in cohort 3 were randomized to receive the study drug in level 8 and placebo in level 9, or vice versa. To determine the effect of food on the exposure of single oral doses of NMD670, dose level 5 was administered in both the fasted and fed condition. Subjects who received dose level 5 returned for a fourth visit in which they received dose level 5 (or matching placebo) in the fed condition, in the same randomization as the chosen dose level in the fasted condition.
# Part A2 of the study investigated the safety, tolerability and pharmacokinetics of NMD670 in 8 healthy female subjects of non-childbearing potential, in a randomized, double-blind, placebo-controlled single dose administration of NMD670. Subjects received 800 mg NMD670. Subjects were randomized in a 6:2 ratio (active vs. placebo).
# The following endpoints were determined at time points indicated in the Schedule of Assessments. • Serious adverse events (SAEs) and adverse events (AEs) were collected throughout the study at every study visit. • Concomitant medication • Clinical laboratory tests • Haematology • Chemistry • Urinalysis • Coagulation • Vital signs • Pulse Rate (bpm) • Systolic blood pressure (mmHg) • Diastolic blood pressure (mmHg) • Respiratory rate • ECG • Heart Rate (HR) (bpm), PR, QRS, QT, QTcF • 24-hour Holter recording • Hand grip dynamometry • Grip release profile; time profile from 100% maximum voluntary contraction (MVC) to 5% of the 100% MVC
# as §1
smiles,measurement,setting,value
"C[C@H](Oc1ccc(Br)cc1-c1ccon1)C(=O)O [NMD670, (2S)-2-[4-bromo-2-(1,2-oxazol-3-yl)phenoxy]propanoic acid]",myotonia,"MG patients; patients with MG, single doses of 400 mg and 1200 mg",not observed
same,symptoms of MG,MG patients; single dose of 400 mg,statistically significant and clinically relevant improvements of symptoms
same,fibres unable to sustain action potential generation for the entire stimulus train,"[1]; 12 Hz, after 10 μM NMD670, 3/47 fibres (before 6/60, 10%)","6,4%"
same,average action potential excitation failure,"[1]; 12 Hz, after addition of 10 μM NMD670 (before 3.6)",1.9%
same,fibres unable to sustain action potential generation for the entire stimulus train,"[1]; 30 Hz, after 10 μM NMD670, 3/47 fibres (before 9/60, 15%)",6.4%
same,average action potential excitation failure,"[1]; 30 Hz, after addition of 10 μM NMD670 (before 4.9)",0.8%
same,fibres unable to sustain action potential generation for the entire stimulus train,"[1]; 80 Hz, after 10 μM NMD670, 20/47 fibres (before 33/60, 55%)",42.5%
same,average action potential excitation failure,"[1]; 80 Hz, after addition of 10 μM NMD670 (before 29.6)",20.4%
same,"CMAP decrement, NMD670 vs vehicle group after treatment","mouse model of CMT1A [2]; 10 mg/kg IP, n=8",not significantly different
same,recovery of CMAP decrement after intervention,"mouse model of CMT1A [2]; 40 Hz, 10 mg/kg IP (sodium salt in PBS), vehicle 8.6",15.2 % point
same,ability to sustain force during stimulated contraction,"mouse model of CMT1A [3]; 10 mg/kg IP, compared to Vehicle",markedly improved
same,stimulated force,"mouse model of CMT1A [3]; 10 mg/kg intra peritoneally, compared to vehicle treatment",significantly increase
same,"Change in Torque (peak stimulated force, before to after treatment)","mouse model of CMT1A [3]; 1 Hz, 10 mg/kg IP, vehicle −0.37",0.95 mN*m
same,"Change in Torque (peak stimulated force, before to after treatment)","mouse model of CMT1A [3]; 15 Hz, 10 mg/kg IP, vehicle −0.46",0.59 mN*m
same,"Change in Torque (peak stimulated force, before to after treatment)","mouse model of CMT1A [3]; 30 Hz, 10 mg/kg IP, vehicle −0.95",0.49 mN*m
same,increase of peak muscle force,"mouse model of CMT1A [3]; 60 Hz, 10 mg/kg IP",1.13 mNm
same,"Change in Torque (peak stimulated force, before to after treatment)","mouse model of CMT1A [3]; 60 Hz, 10 mg/kg IP, vehicle −1.49",1.13 mN*m
same,Change in Fade (before to after treatment),"mouse model of CMT1A [3]; 60 Hz, 10 mg/kg IP, vehicle −1.5",2.2%
same,increase of peak muscle force,"mouse model of CMT1A [3]; 120 Hz, 10 mg/kg IP",1.67 mNm
same,"Change in Torque (peak stimulated force, before to after treatment)","mouse model of CMT1A [3]; 120 Hz, 10 mg/kg IP, vehicle −1.36",1.67 mN*m
same,Change in Fade (before to after treatment),"mouse model of CMT1A [3]; 120 Hz, 10 mg/kg IP, vehicle −14.1",8.1%
same,improvement of ability to sustain force,"mouse model of CMT1A [3]; 200 Hz, 10 mg/kg IP",18.3 % point
same,"Change in Torque (peak stimulated force, before to after treatment)","mouse model of CMT1A [3]; 200 Hz, 10 mg/kg IP, vehicle −1.42",1.90 mN*m
same,Change in Fade (before to after treatment),"mouse model of CMT1A [3]; 200 Hz, 10 mg/kg IP, vehicle −24.1",18.3%
same,tolerability of maximum repeated dose,"healthy volunteers; 400 mg BID, healthy volunteers",well tolerated
same,healthy subjects with myotonic symptoms,"healthy volunteers; 1200 mg once a day, mild in intensity, resolved spontaneously within a few hours",2
same,"adverse event of myotonia, intensity","healthy volunteers; 1600 mg single dose, one healthy subject, spontaneously and fully resolved within hours",moderate in intensity; also recorded: moderate severity
same,serious or severe adverse effects,"healthy volunteers; Phase 1, healthy subjects, single doses 50 to 1600 mg",No serious or severe adverse effects; also recorded: No serious adverse reactions
same,overall safety and tolerability,"healthy volunteers; Phase 1 FIH study, TEAE incidence similar between NMD670 and placebo",safe and well tolerated
same,subject discontinuations,healthy volunteers; Phase 1 Part A,no subject discontinuations
same,total AEs reported,"healthy volunteers; Phase 1 Part A, 35 subjects",70
same,AEs at least possibly drug related,"healthy volunteers; Phase 1 Part A, of 70 AEs, number (%)",47 (67%)
same,serum uric acid,"healthy volunteers; Phase 1 clinical study, not considered clinically significant",dose-dependent decrease
same,"transient myotonia, relation to dose","healthy volunteers; single doses, 1200 mg and 1600 mg",reported at the highest dose levels tested
